The results in this text go back to US6858648B2, “Laetispicine and laetispicine analogues, methods of use and preparation” (Fudan University, priority 2002, dated 2005).

Assay [1] relates to mouse. Description: Mouse acetic acid squirming method. It counts as in vivo. The note with it: for Squirming X ± SE: dose 20 mg/kg, 1 hour before 0.2 ml 1% acetic acid into abdominal cavity, squirmings counted over 10 minutes, male mice; for inflammation and pain relieving effect compared with aspirin: 20 mg/kg each, mouse acetic acid squirming. The source says: The pain and inflammation relieving effect of Laetispicine has been studied by the mouse acetic acid squirming method. In this study, 30 male mice were selected; each of them weighed 20 grams. These mice were divided randomly into 3 groups: Laetispicine group (10 mice), aspirin group (10 mice), and control group (10 mice). Laetispicine of 20 milligram/kilogram body weight in vehicle solution was given to each of the ten mice in Laetispicine group. For a positive control, aspirin of 20 milligram/kilogram body weight in vehicle solution was given to each of the ten mice in aspirin group. Vehicle solution only was given to ten mice in control group (negative control group). One hour later, each mouse was given 0.2 milliliter of 1% acetic acid solution by injection to its abdominal cavity. After the mouse squirmed first time, every squirming of each of the mouse was counted in a period of 10 minutes.

For assay [2], the system named is mouse. Description: Mouse forced swimming experiment. The note with it: for Motionless Time (sec.) X ± SE: 1 hour after dosing, recorded over 4 minutes after 2 minutes adaptation, 10 mice per group; for anti-depression effect compared with Fluoxetine (Prozac): mouse forced swimming, relative to Fluoxetine. In kind it is in vivo. The source says: Mouse forced swimming experiment is by far the best animal model to screen anti-depression drugs. The experiment is designed to create a despaired situation for a mouse by confining the mouse in a container filled with water. Mouse in water will swim to safety. When the mouse cannot find a way out after it tried in the water in the container, it despaired of swimming. There is psychological difference of different mice in the situation. A calm mouse is still swimming and trying to find a way out of the container, while a despaired mouse swims relatively less (moves less). A depressed mouse despairs easily. The more depressed the mouse, the severer the despair.
In this experiment, sixty mice were divided into 6 groups (10 mice in each group). (Referring to Table 1 and FIG. 2) Each mouse in experiment group 1 (Laetispicine 1) was given Laetispicine 50 milligram/kilogram body weight, each mouse in experiment group 2 (Laetispicine 2) was given Laetispicine 20 milligram/kilogram body weight, each mouse in experiment group 3 (Laetispicine 3) was given Laetispicine 10 milligram/kilogram body weight and each mouse in experiment group 4 (Laetispicine 4) was given Laetispicine 5 milligram/kilogram body weight. Fluoxetine (Prozac) was given 50 milligram/kilogram body weight to each mouse of positive control group (Fluoxetine), and placebo was given to each mouse of negative control group.
After receiving the drugs (or placebo) 1 hour later, mice were put into a glass container with a long and narrow opening. The dimension of the container is 30 cm height, filled with water to 15 cm deep.

`CC(=O)Oc1ccccc1C(=O)O` [Aspirin, reference compound]: the “Squirming X ± SE” value in the assay on mouse [1] is 16.8 ± 3.43.

In the case of `CNCCC(Oc1ccc(C(F)(F)F)cc1)c1ccccc1` (stereo not drawn) [Fluoxetine, reference compound], the “Motionless Time (sec.) X ± SE” value with mouse [2] (dose 50 mg/kg) is 113.44 ± 10.10 s.

Regarding `CC(C)CNC(=O)/C=C/C=C/CCC/C=C/Cc1ccc2c(c1)OCO2` [Laetispicine, N-isobutyl-11-(3,4-methylendioxyphenyl)-2E,4E,9E-undecatrienamide], the “effect on mouse depression (in words)” value with mouse [2] (Table 1 and FIG. 2, 5-50 mg/kg) is recorded as “significantly reduced the mouse depression”. The “Motionless Time (sec.) X ± SE” value is 158.78 ± 5.13 s with mouse [2] (dose 5 mg/kg), 131.0 ± 8.86 s in the assay on mouse [2] (dose 10 mg/kg), 50.11 ± 12.69 s with mouse [2] (dose 20 mg/kg) and 17.67 ± 5.33 s in the assay on mouse [2] (dose 50 mg/kg). Further, the “anti-depression effect compared with Fluoxetine (Prozac)” value in the assay with mouse [2] is on record as “five times effective than that of Prozac”; in the assay with mouse [2] (listed as Lactispicine) it was 5 times. The figures for the “inflammation and pain relieving effect compared with aspirin” value in the assay on mouse [1] and in the assay on mouse [1] (listed as Lactispicine) were “equivalent to that of aspirin” and “equivalent to the effect of Aspirin”, respectively. In the assay on mouse [1], the “Squirming X ± SE” value is listed as 16.7 ± 4.92.
